“Also recorded” adds a separate entry of the source.
What was measured:
lung = settings: in vivo; cited from earlier work
10T1/2 cells [1] = assay: siRNA knockdown in 10T1/2 cells, mRNA and protein levels; format: cell-based, mouse
Procedure: For siRNA experiments cells were transfected with siRNA against Gli1 (LIFE SCIENCES, siRNA ID: s66723, Sequence 5'3' Sense: […] NO: 11), Antisense: […] NO: 12)), Gli2 (LIFE SCIENCES, siRNA ID: s66726, Sequence 5'3' Sense: […] NO: 13), Antisense: […] Transfection was performed with a final concentration of 5 nM of each siRNA according to the manufacturer instructions using LIPOFECTAMINE RNAiMAX transfection reagent (LIFE TECHNOLOGIES, #3778075). 72 hours after transfection cells were harvested for RNA or protein isolation. […] Kidney tissue or cell-pellets were harvested and immediately snap frozen in liquid nitrogen. RNA was extracted according to the manufacturer instructions using the RNeasy Mini Kit (QIAGEN) and 600 ng of total RNA was reverse transcribed with iScript (BIORAD). Quantitative polymerase chain reactions were carried out with iQ-SYBR Green supermix (BIORAD) and the BIORAD CFX96 Real Time System with the C1000 Touch Thermal Cycler. […] Glyceraldehyde-3-phosphate dehydrogenase (GAPDH) was used as a housekeeping gene. Data was analyzed using the 2-ΔΔct method. Kidney tissue was snap frozen in liquid nitrogen and stored at -80° C. immediately after mice were killed. Tissue samples were homogenized in lysis buffer containing 10 mM HEPES, pH 7.4, 0.32M sucrose, 2 mM EDTA, 1 mM DTT, 1 mM PMSF and 1 protease inhibitor tablet per 10 ml of lysis buffer (ROCHE Cat. No. 11836153001). Samples were sonicated and protein concentration was determined by the Bradford Assay using BIO-RAD Protein Assay Dye (BIORAD, Cat. No. 500-0006). 10-40 μg of protein from lysates was loaded on a 7.5 or 10% polyacrylamide gel and separated by SDS electrophoresis. […] Following incubation with primary antibody blots were washed probed with respective horseradish-peroxidase conjugated secondary antibodies at 1:5000 (DAKO, Cat. No. P0447, […]) for 1 hour at room temperature and then visualized using the Western Lightning ECL kit from PERKINELMER (#NEL100001EA). Quantification of western bands was performed using ImageJ (NIH).

10T1/2 cells [2] = assay: Flow cytometric cell-cycle analysis of 10T1/2 cells; format: cell-based, mouse; settings: for cell-cycle distribution after siRNA knockdown: siRNA 5 nM vs scrambled siRNA
Gli1 and Gli2 = settings: cited from earlier work
UUO kidneys = assay: Unilateral ureteral obstruction (UUO) kidney fibrosis model; format: in vivo, mouse
kidney = settings: mouse, in vivo
10T1/2 cells [3] = assay: Western blot of whole cell-lysate from 10T1/2 cells treated with darinaparsin; format: cell-based, mouse; settings: darinaparsin 0.5 μM, 72 hours
Text: All cell-lines used within this study were freshly ordered from ATCC and routinely checked for mycoplasma contamination in the inventors' laboratory. 10T1/2 cells (ATCC) and cultured in Basal Medium Eagle (BME, GIBCO; LIFE TECHNOLOGIES) supplemented with 10% fetal bovine serum (FBS), penicillin and streptomycin and 2 mmol/L glutamine (GIBCO). Sonic hedgehog conditioned media was produced from supernatant of confluent Cos7 cells stably transfected with pcDNA3-N-Shh or pcDNA3 control plasmid. For Western blot experiments cells were grown on 10 cm dishes, serum starved in 0.5% FBS for 12 hours and then incubated with darinaparsin (0.5 μM) or vehicle with either Shh preconditioned medium or Cos7 control media (5× i.e., 2 ml preconditioned media in 8 ml BMW 0.5% FBS) for 72 hours.
Kidney tissue was snap frozen in liquid nitrogen and stored at −80° C. immediately after mice were killed. Tissue samples were homogenized in lysis buffer containing 10 mM HEPES, pH 7.4, 0.32M sucrose, 2 mM EDTA, 1 mM DTT, 1 mM PMSF and 1 protease inhibitor tablet per 10 ml of lysis buffer (ROCHE Cat. No. 11836153001). Samples were sonicated and protein concentration was determined by the Bradford Assay using BIO-RAD Protein Assay Dye (BIORAD, Cat. No. 500-0006). 10-40 μg of protein from lysates was loaded on a 7.5 or 10% polyacrylamide gel and separated by SDS electrophoresis. Proteins were transferred to a IMMOBILON membrane (MILLIPORE) blocked in 5% milk in PBST, probed overnight at 4° C. with the primary antibodies: mouse anti-αSMA at 1:4000 (SIGMA, Cat. #A2547), rabbit anti-fibronectin at 1:4000 (ABCAM, #ab23750), rabbit anti-p21 at 1:200 (SANTA CRUZ BIOTECHNOLOGIES, #sc-471), rabbit anti-phospho-retinoblastoma(72) at 1:1000 (CELL SIGNALING #9307S, Ser780), rat anti-Gli1 at 1:1000 (R&D Systems #MAB3324), goat anti-Gli2 at 1:500 (R&D Systems #AF3635), rabbit anti-Cyclin Eat 1:200 (SANTA CRUZ #sc-481), rabbit anti-Cyclin A at 1:200 (SANTA CRUZ BIOTECHNOLOGIES #sc-751), rabbit anti-HA-Tag at 1:5000 (CELL SIGNALING #3724), mouse anti-c-myc (DSHB, Iowa, 9E 10) and rabbit anti-GAPDH at 1:4000 (BETHYL LABORATORIES, #A300-641A). Following incubation with primary antibody blots were washed probed with respective horseradish-peroxidase conjugated secondary antibodies at 1:5000 (DAKO, Cat. No. P0447, P0448, P0450) for 1 hour at room temperature and then visualized using the Western Lightning ECL kit from PERKINELMER (#NEL100001EA). Quantification of western bands was performed using ImageJ (NIH).

[4] = cited from earlier work
[5] = tested on: ATO resistant myeloma cell-lines; settings: cited from earlier work
Gli2 = molecular target: T1, Gli2 (Homo sapiens, UniProt P10070); assay: Gli2 darinaparsin binding assay (GST agarose bead pull-down); settings: 293T cells; for binding to Gli2 (pull-down of myc-tagged Gli2 with GST beads): 0.5 μM darinaparsin or vehicle
T1 construct: 293T cells were transfected with full length Gli2-myc and treated with darinaparsin (DAR) or vehicle (VEH); host or cells: Human 293T/17 (HEK 293T/17, ATCC)
T1 sequence (P10070 whole entry): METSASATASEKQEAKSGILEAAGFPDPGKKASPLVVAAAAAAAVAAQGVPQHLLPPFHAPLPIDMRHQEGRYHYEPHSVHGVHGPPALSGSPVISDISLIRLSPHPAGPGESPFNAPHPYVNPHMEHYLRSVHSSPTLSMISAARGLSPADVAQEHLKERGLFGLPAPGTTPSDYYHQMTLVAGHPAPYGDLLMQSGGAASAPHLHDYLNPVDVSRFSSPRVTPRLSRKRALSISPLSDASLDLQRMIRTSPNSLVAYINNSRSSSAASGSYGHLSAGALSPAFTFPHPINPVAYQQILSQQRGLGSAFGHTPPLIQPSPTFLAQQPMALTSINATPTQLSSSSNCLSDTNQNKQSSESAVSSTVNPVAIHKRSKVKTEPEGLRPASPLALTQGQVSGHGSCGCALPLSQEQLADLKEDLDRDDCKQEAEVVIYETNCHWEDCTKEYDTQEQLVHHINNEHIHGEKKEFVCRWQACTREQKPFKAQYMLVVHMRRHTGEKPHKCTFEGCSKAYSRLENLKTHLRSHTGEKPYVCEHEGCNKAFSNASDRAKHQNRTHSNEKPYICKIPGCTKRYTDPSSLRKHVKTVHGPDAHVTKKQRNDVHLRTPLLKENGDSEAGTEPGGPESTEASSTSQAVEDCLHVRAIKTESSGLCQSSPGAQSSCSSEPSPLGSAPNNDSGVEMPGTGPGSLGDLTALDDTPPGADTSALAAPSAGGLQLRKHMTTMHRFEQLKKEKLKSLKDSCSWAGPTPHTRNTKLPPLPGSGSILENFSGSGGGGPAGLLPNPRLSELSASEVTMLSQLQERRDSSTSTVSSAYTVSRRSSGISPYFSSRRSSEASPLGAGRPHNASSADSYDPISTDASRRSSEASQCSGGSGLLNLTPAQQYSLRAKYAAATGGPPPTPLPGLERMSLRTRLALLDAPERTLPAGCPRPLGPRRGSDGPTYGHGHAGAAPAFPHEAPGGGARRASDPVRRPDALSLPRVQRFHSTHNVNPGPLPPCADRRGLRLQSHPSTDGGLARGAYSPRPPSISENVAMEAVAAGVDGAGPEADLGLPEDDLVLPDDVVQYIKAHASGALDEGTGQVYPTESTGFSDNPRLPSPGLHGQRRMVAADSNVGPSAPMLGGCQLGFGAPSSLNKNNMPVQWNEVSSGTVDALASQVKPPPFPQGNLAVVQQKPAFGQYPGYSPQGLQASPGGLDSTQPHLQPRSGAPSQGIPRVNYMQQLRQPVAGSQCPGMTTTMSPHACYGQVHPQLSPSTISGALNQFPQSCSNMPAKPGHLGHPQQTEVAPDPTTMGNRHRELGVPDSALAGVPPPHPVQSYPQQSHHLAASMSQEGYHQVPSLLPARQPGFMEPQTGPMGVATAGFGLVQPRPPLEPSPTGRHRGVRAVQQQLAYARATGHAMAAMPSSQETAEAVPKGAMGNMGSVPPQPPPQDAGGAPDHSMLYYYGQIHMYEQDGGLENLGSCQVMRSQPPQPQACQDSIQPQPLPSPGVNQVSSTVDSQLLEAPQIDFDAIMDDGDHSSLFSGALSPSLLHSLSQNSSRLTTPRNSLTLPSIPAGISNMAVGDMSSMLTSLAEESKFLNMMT
Procedure: Human 293T/17 (HEK 293T/17, freshly ordered from ATCC) were grown in a 10 cm cell-culture dish until 80% confluent and transfected with pCS2-MT Gli2 FL kindly provided by Dr. Roessler (49) (ADDGENE Plasmid 17648: pCS2-MT GLI2 FL) using Lipofectamine 2000 (LIFE TECHNOLOGIES) according to the manufacturer instructions. 72 hours after transfection the cells were treated with 0.5 μM darinaparsin or vehicle in DMEM 10% FBS for 12 hours, thereafter cells were resuspended in cold (4° C.) PBS and washed twice with PBS. After centrifugation (1500 rpm, 5 minutes) 1 ml of IP-Lysis Buffer (THERMO SCIENTIFIC)+proteinase inhibtior (ROCHE, #1183617000T) was added to the cell pellet and the suspension was homogenized using an insulin syringe. After centrifugation of the protein-solution (15 min, 12000 rpm) the supernatant was transferred into a fresh tube, an aliquot of 100 μl was taken as input control (FIG. 24) and the solution was incubated with 50 μl GST-Agarose beads (PIERCE GST Agarose #20211, THERMO SCIENTIFIC) for 4 hours on a rotator at 4° C. Thereafter the bead-protein solution was centrifuged (5000 rpm, 3 min) and the supernatant was taken as outflow control (FIG. 24), the agarose beads were washed three times by adding 1 ml of the above mentioned IP-Lysis buffer containing proteinase inhibitors followed by vortexing and centrifugation (5000 rpm, 3 min), the supernatant after each centrifugation was discarded. After 3 washes, the GST beads were cooked at 96° C. for 7 minutes in 100 μl Laemmli buffer (BIO-RAD). All protein samples (input, outflow and the final GST bead purification solution) were analysed by western blot with an antibody against c-myc (mouse monoclonal, 9E 10, DSHB, Iowa) the membrane was stained with Ponceau-S (SIGMA) to show specificity (FIG. 6H).

human colon cancer cells = settings: cited from earlier work
Gli1+ MSC = assay: Myofibroblast differentiation of Gli1+ MSC in vitro upon TGF-β; format: cell-based, mouse; settings: for αSMA expression: Gli1+ MSC from bone marrow / bone chips or heart
[6] = siRNA 5 nM, 72 hours after transfection
[7] = GANT61 after UUO, UUO kidneys vs vehicle
[8] = GANT61 after UUO, listed as Gant61

In the case of `CS(=O)(=O)c1ccc(C(=O)Nc2ccc(Cl)c(-c3ccccn3)c2)c(Cl)c1` [GDC-0449], the “fibrosis severity in bleomycin induced lung fibrosis” value (lung) is given as “did not show this effect”.

For “siRNA directed against Gli2: siRNA ID s66726, SEQ ID NO: 13 and 14 (chain 1 GGAAAACUUCAACAAUACATT; chain 2 UGUAUUGUUGAAGUUUUCCAG; chemistry not given here)”, the Gli2 expression (10T1/2 cells [1]; [6]) was “reduced”, the “mRNA and protein levels of Gli1” value (10T1/2 cells [1]; [6]) was “reduced” and the p21 level (10T1/2 cells [1]; siRNA knockdown, western blot) was “increased levels”. For the same compound, the “phosphorylated retinoblastoma (Ser780) level” value (10T1/2 cells [1]; siRNA knockdown, western blot) was “reduced levels” and the “cell-cycle distribution after siRNA knockdown” value (10T1/2 cells [2]) was “G0/G1 arrest”.

In the case of Arsenic trioxide [ATO], the “antagonism of Gli1 and Gli2” value (Gli1 and Gli2) is given as “antagonize both Gli1 and Gli2”.

In the case of `C[As](C)SC[C@H](NC(=O)CC[C@H](N)C(=O)O)C(=O)NCC(=O)O` [darinaparsin, S-dimethylarsino-glutathione], the fibrotic readouts (UUO kidneys; mouse, in vivo) is reported as “substantial reductions”, the BUN levels (kidney) is reported as “lower” and the interstitial fibrosis (kidney) is reported as “reduced”. For the same compound, the Gli1 protein level (10T1/2 cells [3]) was “reduced”, the Gli2 protein level (10T1/2 cells [3]) was “reduced” and the p21 level (10T1/2 cells [3]) was “upregulation”. For the same compound, the p-Rb level (10T1/2 cells [3]) was “decreased levels”, the “cell-cycle effect of darinaparsin upon Gli2 overexpression” value (10T1/2 cells [2]; 10T1/2 cells with retroviral full-length Gli2 vs control virus) was “rescued the cell-cycle effect; also recorded: rescues the cell cycle effect” and the “cell-cycle distribution of 10T1/2 cells” value (10T1/2 cells [2]; darinaparsin 0.5 μM vs vehicle, BrdU/7AAD flow cytometry) was “induces a G0/G1 cell cycle arrest”. For the same compound, the systemic toxicity ([4]; compared to ATO) was “significantly lower”, the “tolerated maximum dose compared to ATO” value ([4]; higher than ATO) was 50 fold and the “side effect on fast cycling cell populations as the bone marrow or intestine” value ([4]; reported by Tian et al.) was “no significant side effect”. For the same compound, the “susceptibility of ATO resistant myeloma cell-lines” value [5] was “susceptible”, the “enrichment of other nonspecific proteins (Ponceau staining)” value (Gli2; 0.5 μM darinaparsin) was “did not result in enrichment” and the “binding to Gli2 (pull-down of myc-tagged Gli2 with GST beads)” value (Gli2) was “binds directly to Gli2”. The “binding to Gli2 (pull-down of myc-tagged Gli2 with GST beads)” value (Gli2; listed as DAR) was “able to pull down Gli2”.

With “siRNA against Gli1: siRNA ID s66723, SEQ ID NO: 11 and 12 (chain 1 GCAGGUCUCCUAUCCUGAUTT; chain 2 NAUCAGGAUAGGAGACCUGCTG; chemistry not given here)” the “mRNA and protein levels of Gli1” value (10T1/2 cells [1]; [6]) was “reduced” and the “cell-cycle distribution after siRNA knockdown” value (10T1/2 cells [2]) was “had no effect”.

In the case of `CN(C)c1ccccc1CN1CCCN(Cc2ccccc2N(C)C)C1c1ccncc1` [GANT61], the “interstitial fibrosis (scoring of trichrome stained sections)” value (UUO kidneys; GANT61 50 mg/kg s.c. at day 1, 2, 3, 5, 7 and 9 after UUO, vs vehicle, 50 mg/kg) is reported as “significantly reduced; also recorded: significantly less fibrosis”, the “Gli1 protein level of UUO kidneys” value (UUO kidneys; GANT61 after UUO) is reported as “significantly reduced” and the “Gli2 protein level of UUO kidneys” value (UUO kidneys; GANT61 after UUO) is reported as “significantly reduced”. The “mRNA expression of hedgehog readout Gli1” value (UUO kidneys; GANT61 after UUO) was “reduced”, the “mRNA expression of hedgehog readout Ptch1” value (UUO kidneys; GANT61 after UUO) was “reduced” and the “expression of fibrotic readout Coiled” value (UUO kidneys; [7]) was “significantly reduced; also recorded: significant lower expression”. For the same compound, the “expression of fibrotic readout fibronectin” value (UUO kidneys; [7]) was “significantly reduced; also recorded: significant lower expression”, the “expression of fibrotic readout α-SMA” value (UUO kidneys; [7]) was “significantly reduced; also recorded: significant lower expression” and the “mRNA expression of hedgehog readout Gli1” value (UUO kidneys; [8]) was “significant reduction”. The “mRNA expression of hedgehog readout Ptch1” value (UUO kidneys; [8]) was “significant reduction”, the “cell cycle of human colon cancer cells” value (human colon cancer cells) was “induced a G0/G1 arrest” and the “p21 in human colon cancer cells” value (human colon cancer cells) was “upregulation”. For the same compound, the “fibrosis severity in bleomycin induced lung fibrosis” value (lung) was “decreased fibrosis severity”.

In the case of TGF-β, the αSMA expression (Gli1+ MSC) is reported as “acquired expression”, the αSMA expression (Gli1+ MSC; listed as TGFβ) is reported as “robust upregulation” and the “induction of αSMA” value (Gli1+ MSC; bone marrow-derived Gli1+ MSC purified by FACS) is reported as 45 ×.

Reference: US9970935B2, “Uses of GLI1 in detecting tissue fibrosis” (THE BRIGHAM AND WOMEN'S HOSPITAL, INC., priority 2014, dated 2018)
